In paper PMC8218918, “The Cyr61 Is a Potential Target for Rotundifuran, a Natural Labdane-Type Diterpene from Vitex trifolia L., to Trigger Apoptosis of Cervical Cancer Cells” (Oxidative Medicine and Cellular Longevity, 2021):

Biological target: T1, Cyr61 (Homo sapiens, UniProt O00622)
T1 construct: gene CCN1; Cyr61 protein (Mammalian, C-Fc)
T1 sequence (O00622 25-381): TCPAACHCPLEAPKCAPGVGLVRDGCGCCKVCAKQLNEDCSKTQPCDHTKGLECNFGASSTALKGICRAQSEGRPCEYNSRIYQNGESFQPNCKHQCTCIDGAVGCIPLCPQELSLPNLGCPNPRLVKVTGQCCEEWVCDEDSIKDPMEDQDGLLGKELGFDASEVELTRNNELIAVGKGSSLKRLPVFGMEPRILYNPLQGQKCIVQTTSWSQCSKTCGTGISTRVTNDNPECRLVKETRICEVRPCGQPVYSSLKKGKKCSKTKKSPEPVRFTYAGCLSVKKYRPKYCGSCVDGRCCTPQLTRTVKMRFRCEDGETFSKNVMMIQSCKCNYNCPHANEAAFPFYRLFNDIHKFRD
Assay: Microscale thermophoresis with RED-NHS labelled recombinant Cyr61; supported by DARTS and CETSA in HeLa cells
Format: binding

CC(=O)O[C@@H]1C[C@@H](C)[C@](O)(CCc2ccoc2)[C@@]2(C)CCCC(C)(C)[C@H]12 [RTF, Rotundifuran]
Kd: 3.8 ± 4.5 µM
